Experimental data as given in PubChem BioAssay (NCI).
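96-well plates; 48 h exposure; 5 concentrations. Endpoints by linear interpolation between flanking doses. Not reached: highest tested concentration assigned. GI50 = concentration required for 50% inhibition of growth. Definition used: TGI = concentration required for complete inhibition of growth.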

What was measured:
Experiment in all cases: inhibition of tumour cell growth, NCI panel, 48 h
A498 renal = system: A498 renal
ACHN renal = system: ACHN renal
HCT-15 colon = system: HCT-15 colon
HOP-92 NSCLC = system: HOP-92 NSCLC
HS 578T breast = system: HS 578T breast
M14 melanoma = system: M14 melanoma
NCI-H522 lung = system: NCI-H522 lung
SF-295 CNS = system: SF-295 CNS
SK-MEL-2 melanoma = system: SK-MEL-2 melanoma
SN12C renal = system: SN12C renal

Structure (SMILES)	GI50 (A498 renal) [µM]	TGI (A498 renal) [µM]	GI50 (ACHN renal) [µM]	TGI (ACHN renal) [µM]	GI50 (HCT-15 colon) [µM]	TGI (HCT-15 colon) [µM]	GI50 (HOP-92 NSCLC) [µM]	TGI (HOP-92 NSCLC) [µM]	GI50 (HS 578T breast) [µM]	TGI (HS 578T breast) [µM]	GI50 (M14 melanoma) [µM]	TGI (M14 melanoma) [µM]	GI50 (NCI-H522 lung) [µM]	TGI (NCI-H522 lung) [µM]	GI50 (SF-295 CNS) [µM]	TGI (SF-295 CNS) [µM]	GI50 (SK-MEL-2 melanoma) [µM]	TGI (SK-MEL-2 melanoma) [µM]	GI50 (SN12C renal) [µM]	TGI (SN12C renal) [µM]
C=C(C)[C@@H]1CC[C@]2(C(=O)N3CCN(C)CC3)CC[C@]3(C)[C@H](CC[C@@H]4[C@@]5(C)CC[C@H](O)C(C)(C)[C@@H]5CC[C@]43C)[C@@H]12	1.5	2.9	1.69	3.12	1.69	3.86	1.69	3.42	1.94	4.68	1.89	3.76	1.92	3.8	1.68	3.27	1.64	3.14	1.72	3.46
Clc1ccc(Nc2ncnc3c2sc2ncccc23)c(Cl)c1	0.0317	> 22.1	< 0.01	3.95	0.052	> 100	0.0632	21.6	> 100	> 100	< 0.01	0.038	< 0.0122	> 100	0.0309	> 100	30.7	> 100	0.126	> 100
Cc1nc2cc(Nc3nc(Nc4ccc(F)cc4)nc(N4CCCC4)n3)ccc2n1Cc1ccccc1	1.45	3.24	2.19	5.41	1.88	3.99	1.07	2.47	2.23	6.67	2.06	4.29	1.69	4.07	2.15	4.78	1.69	3.33	1.84	3.45
CCC1OC(=O)CC(O)C(C)C(OC2OC(C)CC(N(C)C)C2O)C(CC=O)CC(C)C(=O)/C=C/C2(C)OC2C1C (stereo not given)	–	71.8	–	56.1	–	39.1	–	64.6	–	> 100	–	> 100	–	54.9	–	77.1	–	> 100	–	39.1
